For 36 compounds, IC50 results are on record in patent publication US9199975B2, “Biaryl imidazole derivatives for regulating CYP17” (Asana Biosciences, LLC, priority 2011, dated 2015).

Each structure is given as a SMILES string. pIC50: −log10 of the molar value. Bounds are passed on as bounds.

This experiment has as its target T1, human CYP17 (Homo sapiens, UniProt P05093).
T1 sequence (P05093 1-508): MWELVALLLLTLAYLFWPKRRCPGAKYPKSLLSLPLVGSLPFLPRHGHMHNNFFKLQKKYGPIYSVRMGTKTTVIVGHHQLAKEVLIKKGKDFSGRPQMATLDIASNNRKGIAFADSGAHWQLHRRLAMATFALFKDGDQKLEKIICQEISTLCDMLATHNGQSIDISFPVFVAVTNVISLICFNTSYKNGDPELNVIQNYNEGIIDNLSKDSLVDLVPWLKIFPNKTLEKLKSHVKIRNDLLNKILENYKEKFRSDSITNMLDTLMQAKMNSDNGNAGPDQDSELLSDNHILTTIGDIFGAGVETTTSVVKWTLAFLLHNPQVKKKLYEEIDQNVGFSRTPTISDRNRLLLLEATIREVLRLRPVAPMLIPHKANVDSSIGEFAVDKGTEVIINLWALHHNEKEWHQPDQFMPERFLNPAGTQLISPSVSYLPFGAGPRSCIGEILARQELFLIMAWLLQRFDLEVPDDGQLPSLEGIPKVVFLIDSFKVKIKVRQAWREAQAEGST
Briefly: Cell-based human CYP17 inhibition assay, H295R adrenocortical carcinoma cells. The note with it: 16 hours at 37° C., read-out: CYP17 (human H295R adrenal cells). On the set-up: H295R Adrenocortical carcinoma cells [NCI-H295A, ATCC Number CRL-2128, American Type Culture Collection; host or cells: H295R adrenocortical carcinoma cells. On the procedure: Cell-Based Human CYP17 Inhibition Assay
A. Materials • 1. H295R Adrenocortical Carcinoma Cells and Growth Media: The media for the H295R Adrenocortical carcinoma cells [NCI-H295A, ATCC Number CRL-2128, American Type Culture Collection, Manassas, Va., US] (500 mL) was a DMEM:F12 Mix 1:1 with 5% […] BD Nu Serum; 1% (5 mL) ITS+Premix [BD Biosciences] and 1% Penstrep. • 2. LNCap-CYP17 Cells and Growth Media: Full length hCYP17a1 gene (NCBI Reference Sequence: NM_000102.3) was cloned in pCDNA3.1(+) vector between HindIII and XhoI site. The pCDNA3.1(+) vector contains the Neomycin resistance gene and was used for selection of stable cell line. The hCYP17a1 containing pCDNA3.1(+) was transfected into LNCap cells to create the LNCap-CYP17 cell line. The media for the LNCaP-CYP17 cells was RPMI 1640, 10% FBS, 1% PenStrep, Geneticin 400 μg/mL.
The H295R cells or LNCaP-hCYP17 cells were subcultured and 30,000 cells per well were seeded in a poly-d lysine plate and incubated overnight at 37° C. The next day the media was removed and 200 µL of fresh media with ^3H3-17α-hydroxy-pregnenolone (1:1000) was added. 50 μL of serially diluted compounds from a 5× plate (5 times the final desired concentration) was added. The working concentration range for active, new compounds started from a high concentration of […] with 3-fold serial dilutions generating up to 10 concentrations. The serial dilution in the 100× plate (in DMSO) and the stamping of a 5× plate (in media) from the 100× plate were carried out using a TECAN liquid handling device.
The plates were incubated overnight (16 hours) at 37° C. After 16 hours, the media was removed (approximately 220 μL) and an equal amount of chloroform was added, mixed and incubated for 30 minutes at 4 degrees. The plate was centrifuged at 4000 rpm for 15 minutes at 4° C., following which the top aqueous layer was carefully removed and added into a new deep well plate. An equal volume of activated 5% charcoal was added, mixed and incubated for 30 minutes at 4° C. The plate was then centrifuged at 4000 rpm for 15 minutes at 4° C. and the top layer carefully separated, avoiding any charcoal contamination, and placed in a white, clear bottom plate (plate cat #3610, Corning Life Sciences). An equal volume of Microscint™ 40 was added and mixed well. Following the incubation for 30 minutes, readings for the radiotracer were taken using a Microbeta® trilux.
As for `CC(c1ccc(-c2ccoc2)cn1)n1ccnc1` (stereo not drawn) [Example 13, 2-(1-(1H-imidazol-1-yl)ethyl)-5-(furan-3-yl)pyridine], the pIC50 was 5.00 to 6.70.
Under `CCC(c1ccc(-c2cccc(F)c2)cn1)n1ccnc1` (stereo not drawn) [Example 45, 5-(3-Fluoro-phenyl)-2-(1-imidazol-1-yl-propyl)-pyridine] stands over 7.30; under `CC(=O)Nc1ccc(-c2ccc(C(C)n3ccnc3)nc2)cc1` (stereo not drawn) [Example 64, N-{4-[6-(1-Imidazol-1-yl-ethyl)-pyridin-3-yl]-phenyl}-acetamide], 5.00 to 6.70; under `COc1ccc(-c2cccc(C(C)n3ccnc3)n2)cc1` (stereo not drawn) [Example 42, 2-(1-Imidazol-1-yl-ethyl)-6-(4-methoxy-phenyl)-pyridine], 6.70 to 7.30.
Under `CCC(c1cnc(-c2ccc(OC)cc2)s1)n1ccnc1` (stereo not drawn) [Example 35, 5-(1-Imidazol-1-yl-propyl)-2-(4-methoxy-phenyl)-thiazole] stands 6.70 to 7.30.
For `CCOC(=O)c1ccc(-c2ncc(C(C)n3ccnc3)s2)cc1` (stereo not drawn) [Example 55, 4-[5-(1-Imidazol-1-yl-ethyl)-thiazol-2-yl]-benzoic acid ethyl ester] the value was 6.70 to 7.30; for `CCC(c1ccc(-c2ccc(C#N)cc2)cn1)n1ccnc1` (stereo not drawn) [Example 17, 4-[6-(1-Imidazol-1-yl-propyl)-pyridin-3-yl]-benzonitrile], 6.70 to 7.30; for `COc1ccc(-c2ccc(C(CC(C)C)n3ccnc3)nc2)cc1` (stereo not drawn) [Example 62, 2-(1-Imidazol-1-yl-3-methyl-butyl)-5-(4-methoxy-phenyl)-pyridine], 6.70 to 7.30.
With `CC(c1ccc(-c2cccc(F)c2)cn1)n1ccnc1` (stereo not drawn) [Example 57, 5-(3-Fluoro-phenyl)-2-(1-imidazol-1-yl-ethyl)-pyridine], the pIC50 was 6.70 to 7.30.
For `CCC(c1ccc(-c2ccccc2F)cn1)n1ccnc1` (stereo not drawn) [Example 48, 5-(2-Fluoro-phenyl)-2-(1-imidazol-1-yl-propyl)-pyridine] the value was over 7.30; for `CCC(c1cnc(-c2ccc(O)cc2)s1)n1ccnc1` (stereo not drawn) [Example 60, 4-[5-(1-Imidazol-1-yl-propyl)-thiazol-2-yl]-phenol], 6.70 to 7.30.
Under `CCC(c1cnc(-c2ccc(=O)[nH]c2)s1)n1ccnc1` (stereo not drawn) [Example 59, 5-[5-(1-Imidazol-1-yl-propyl)-thiazol-2-yl]-1H-pyridin-2-one] stands 5.00 to 6.70; under `COc1ccc(-c2ccc(C(C)n3ccnc3)nc2)cc1` (stereo not drawn) [Example 15, 2-(1-(1H-imidazol-1-yl)ethyl)-5-(4-methoxyphenyl)pyridine], 6.70 to 7.30; under `CC(c1ccc(-c2ccc(=O)n(C(C)C)c2)s1)n1ccnc1` (stereo not drawn) [Example 21, 5-(5-(1-(1H-imidazol-1-yl)ethyl)thiophen-2-yl)-1-isopropylpyridin-2(1H)-one], 6.70 to 7.30.
Under `CC(c1cnc(-c2ccc(C(=O)O)cc2)s1)n1ccnc1` (stereo not drawn) [Example 65, 4-[5-(1-Imidazol-1-yl-ethyl)-thiazol-2-yl]-benzoic acid] stands 5.00 to 6.70; under `CCC(c1ccc(-c2ccc(O)cc2)o1)n1ccnc1` (stereo not drawn) [Example 30, 4-[5-(1-Imidazol-1-yl-propyl)-furan-2-yl]-phenol], over 7.30; under `CC(c1ccc(-c2ccc(F)cc2)cn1)n1ccnc1` (stereo not drawn) [Example 34, 5-(4-Fluoro-phenyl)-2-(1-imidazol-1-yl-ethyl)-pyridine], over 7.30.
`CCC(c1cnc(-c2cccc(F)c2)s1)n1ccnc1` (stereo not drawn) [Example 1, 5-(1-(1H-imidazol-1-yl)propyl)-2-(3-fluorophenyl)thiazole]: the pIC50 is 6.70 to 7.30.
Regarding `COc1ccc(-c2ccc(C(C)n3ccnc3)s2)cc1` (stereo not drawn) [Example 36, 1-{1-[5-(4-Methoxy-phenyl)-thiophen-2-yl]-ethyl}-1H-imidazole], the pIC50 is over 7.30.
With `CCC(c1ccc(-c2ccc(O)cc2)s1)n1ccnc1` (stereo not drawn) [Example 4, 4-(5-(1-(1H-imidazol-1-yl)propyl)thiophen-2-yl)phenol], the pIC50 is over 7.30.
Under `CCC(c1ccc(-c2ccc(OC)cc2)s1)n1ccnc1` (stereo not drawn) [Example 3, 1-(1-(5-(4-methoxyphenyl)thiophen-2-yl)propyl)-1H-imidazole] stands over 7.30; under `CCC(c1cnc(-c2ccc(OC)nc2)s1)n1ccnc1` (stereo not drawn) [Example 51, 5-[5-(1-Imidazol-1-yl-propyl)-thiazol-2-yl]-2-methoxy-pyridine], 6.70 to 7.30.
Take `CC(C)(c1ccc(-c2ccc(O)cc2)s1)n1ccnc1` [Example 26, 4-[5-(1-Imidazol-1-yl-1-methyl-ethyl)-thiophen-2-yl]-phenol]: the pIC50 was over 7.30.
Under `COc1ccc(-c2ccc(C(C)n3ccnc3)s2)cn1` (stereo not drawn) [Example 25, 5-[5-(1-Imidazol-1-yl-ethyl)-thiophen-2-yl]-2-methoxy-pyridine] stands over 7.30.
Under `CC(c1cnc(-c2ccc(=O)[nH]c2)s1)n1ccnc1` (stereo not drawn) [Example 63, 5-[5-(1-Imidazol-1-yl-ethyl)-thiazol-2-yl]-1H-pyridin-2-one] stands 5.00 to 6.70; under `CCC(c1cnc(-c2ccc(F)cc2)s1)n1ccnc1` (stereo not drawn) [Example 33, 2-(4-Fluoro-phenyl)-5-(1-imidazol-1-yl-propyl)-thiazole], over 7.30; under `CCC(c1ccc(-c2ccc(C(N)=O)cc2)cn1)n1ccnc1` (stereo not drawn) [Example 10, 4-(6-(1-(1H-imidazol-1-yl)propyl)pyridin-3-yl)benzamide], 5.00 to 6.70.
For the compound `CCC(c1cnc(-c2ccc(F)cc2F)s1)n1ccnc1` (stereo not drawn) [Example 32, 2-(2,4-Difluoro-phenyl)-5-(1-imidazol-1-yl-propyl)-thiazole], the pIC50 is over 7.30.
As to `CCC(c1ccc(-c2ccc(C(=O)NC)cc2)cn1)n1ccnc1` (stereo not drawn) [Example 9, 4-(6-(1-(1H-imidazol-1-yl)propyl)pyridin-3-yl)-N-methylbenzamide], the pIC50 was 5.00 to 6.70.
Consider `CC(c1ccc(-c2ccc(F)cc2)nc1)n1ccnc1` (stereo not drawn) [Example 54, 2-(4-Fluoro-phenyl)-5-(1-imidazol-1-yl-ethyl)-pyridine], for which the pIC50 was 5.00 to 6.70.
Turning to `CCC(c1ccc(-c2ccc(CO)cc2)cn1)n1ccnc1` (stereo not drawn) [Example 41, {4-[6-(1-Imidazol-1-yl-propyl)-pyridin-3-yl]-phenyl}-methanol], the pIC50 is 6.70 to 7.30.
For `CCC(c1nnc(-c2ccc(F)cc2)s1)n1ccnc1` (stereo not drawn) [Example 19, 2-(1-(1H-imidazol-1-yl)propyl)-5-(4-fluorophenyl)-1,3,4-thiadiazole] the value was 6.70 to 7.30; for `CCOC(=O)c1ccc(-c2ccc(C(CC)n3ccnc3)nc2)cc1` (stereo not drawn) [Example 5, Ethyl 4-(6-(1-(1H-imidazol-1-yl)propyl)pyridin-3-yl)benzoate], 6.70 to 7.30; for `CC(c1cnc(-c2ccc(C#N)cc2)s1)n1ccnc1` (stereo not drawn) [Example 22, 4-(5-(1-(1H-imidazol-1-yl)ethyl)thiazol-2-yl)benzonitrile], 6.70 to 7.30.
Under `CC(C)CC(c1ccc(-c2ccc(O)cc2)s1)n1ccnc1` (stereo not drawn) [Example 23, 4-(5-(1-(1H-imidazol-1-yl)-3-methylbutyl)-thiophen-2-yl)phenol] stands over 7.30.
For `COc1ccc(-c2ccc(C(C)(C)n3ccnc3)nc2)cc1` [Example 61, 2-(1-Imidazol-1-yl-1-methyl-ethyl)-5-(4-methoxy-phenyl)-pyridine], the pIC50 is 6.70 to 7.30.
